The text below walks through data of BindingDB's records for doi:10.1016/s0014-2999(98)00159-9 (Novartis Pharma, 1998).

Molecules are shown by their SMILES. Values joined by “and” are separate entries in the source; they are usually repeats but may differ in a detail not shown here. Identical values can stand only once. Where a SMILES comes first, the peptide text is derived from it. Bridges are numbered along the chain shown (N, C = ends). [ ]: non-standard residue; d: D form. The star is where a group is joined. d1Nal = N[C@H](Cc1cccc2ccccc12)C(=O)O; Ahp = NCCCCCCC(=O)O; Bn = c1ccc(C*)cc1

Test [1] concerns the target Somatostatin receptor type 2 (Homo sapiens, UniProt P30874).
The target of test [2] is Somatostatin receptor type 5 (Homo sapiens, UniProt P35346).
Sequence of Somatostatin receptor type 5 (P35346 whole entry): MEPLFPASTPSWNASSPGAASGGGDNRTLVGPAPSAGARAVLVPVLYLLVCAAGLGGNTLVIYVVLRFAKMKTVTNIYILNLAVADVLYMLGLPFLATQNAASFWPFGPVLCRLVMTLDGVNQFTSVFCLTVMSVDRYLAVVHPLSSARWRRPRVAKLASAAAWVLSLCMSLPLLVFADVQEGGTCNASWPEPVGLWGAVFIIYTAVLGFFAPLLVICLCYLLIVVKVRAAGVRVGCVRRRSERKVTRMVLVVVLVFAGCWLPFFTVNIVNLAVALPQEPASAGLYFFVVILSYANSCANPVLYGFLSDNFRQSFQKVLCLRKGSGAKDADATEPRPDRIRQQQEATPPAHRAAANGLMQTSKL

Sequence of Somatostatin receptor type 2 (P30874 whole entry): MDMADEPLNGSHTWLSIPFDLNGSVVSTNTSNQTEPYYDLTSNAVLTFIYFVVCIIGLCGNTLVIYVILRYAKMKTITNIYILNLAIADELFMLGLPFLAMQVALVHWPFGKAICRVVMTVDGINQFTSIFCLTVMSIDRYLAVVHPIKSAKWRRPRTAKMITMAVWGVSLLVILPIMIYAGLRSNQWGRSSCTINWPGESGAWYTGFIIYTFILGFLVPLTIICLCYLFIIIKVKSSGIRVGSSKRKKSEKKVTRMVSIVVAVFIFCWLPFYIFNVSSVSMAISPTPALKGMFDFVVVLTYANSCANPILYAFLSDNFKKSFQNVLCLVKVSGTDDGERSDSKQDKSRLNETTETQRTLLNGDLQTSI

For orientation: Ki means the dissociation constant of the complex between target and ligand, obtained from inhibition or displacement. Read a high Ki as weaker binding. On to `C[C@@H](O)[C@@H]1NC(=O)[C@H](CCCCN)NC(=O)[C@@H](Cc2c[nH]c3ccccc23)NC(=O)[C@H](Cc2ccccc2)NC(=O)[C@@H]2CCCN2C(=O)[C@H](Cc2ccccc2)NC1=O` (cyclo(PF[dW]KTF)), for which, in test [1], the Ki was 5.24 nM and 4.07 nM and 4.78 nM and 0.53 nM.

Consider `CC(C)[C@@H]1NC(=O)[C@H](CCCCN)NC(=O)[C@@H](Cc2c[nH]c3ccccc23)NC(=O)[C@H](Cc2ccc(O)cc2)NC(=O)[C@@H](NC(=O)[C@H](N)Cc2ccc3ccccc3c2)CSSC[C@@H](C(=O)N[C@H](C(N)=O)[C@@H](C)O)NC1=O` [3-(2-Naphtyl)-D-Ala-L-Cys(1)-L-Tyr-D-Trp-L-Lys-L-Val-L-Cys(1)-L-Thr-NH2], for which the Ki in test [1] was 0.53 nM and 1.38 nM and 0.28 nM and 0.21 nM.

Regarding `CC(C)[C@H](NC(=O)[C@H](CCCCN)NC(=O)[C@@H](Cc1c[nH]c2ccccc12)NC(=O)[C@H](Cc1ccc(O)cc1)NC(=O)[C@H](Cc1ccccc1)NC(=O)[C@H](N)Cc1ccccc1)C(=O)N[C@@H](Cc1ccccc1)C(=O)N[C@H](Cc1cccc2ccccc12)C(N)=O` [BIM 23056] (H-[dF]FY[dW]KVF[d1Nal]-NH2), the Ki in test [1] is 468 nM and 724 nM and 417 nM and 224 nM.

Consider `C[C@@H](O)[C@H](NC(=O)[C@H](Cc1ccccc1)NC(=O)[C@@H](NC(=O)[C@H](CCCCN)NC(=O)[C@@H](Cc1c[nH]c2ccccc12)NC(=O)[C@H](Cc1ccccc1)NC(=O)[C@H](Cc1ccccc1)NC(=O)[C@H](N)Cc1ccccc1)[C@@H](C)O)C(N)=O` [CAS_133073-82-2] (H-[dF]FF[dW]KTFT-NH2), for which, in test [1], the Ki is 1.73 nM and 5.01 nM and 16.6 nM and 2.81 nM and 1.86 nM.

As to `C[C@@H](O)[C@@H]1NC(=O)[C@H](CCCCN)NC(=O)[C@H](Cc2c[nH]c3ccccc23)NC(=O)[C@H](Cc2ccccc2)NC(=O)[C@H](Cc2ccccc2)NC(=O)[C@H](CC(N)=O)NC(=O)[C@H](CCCCN)NC(=O)[C@@H](NC(=O)[C@@H]2CCCN2)CSSC[C@@H](C(=O)N[C@@H](CCCCN)C(=O)O)NC(=O)[C@H](CO)NC(=O)[C@H](CO)NC(=O)[C@H](Cc2ccccc2)NC1=O` [CORTISTATIN-14] (H-PCKNFFWKTFSSCK-OH; disulfide 2-13), the Ki was 0.57 nM and 1.94 nM and 0.45 nM in test [2]; 0.91 nM and 1.77 nM and 4.46 nM in test [1].

Take `C[C@@H](O)[C@@H]1NC(=O)[C@H](CCCCN)NC(=O)[C@@H](Cc2c[nH]c3ccccc23)NC(=O)[C@H](Cc2c[nH]c3ccccc23)NC(=O)[C@H](Cc2ccccc2)NC(=O)CCCCCCNC(=O)[C@H](Cc2ccccc2)NC1=O` [L-362855] (cyclo([Ahp]FW[dW]KTF)): the Ki in test [1] is 2.04 nM and 4.36 nM and 1.62 nM.

For the molecule `C[C@@H](OCc1ccccc1)[C@@H]1NC(=O)[C@H](CCCCN)NC(=O)[C@@H](Cc2c[nH]c3ccccc23)NC(=O)[C@H](Cc2ccccc2)NC(=O)CCCCCCNC1=O` [c[Aha-Phe-D-Trp-Lys-Thr(Bzl)]] (cyclo([Ahp]F[dW]KT(Bn))), the Ki in test [1] is 1580 nM and 3980 nM and 3720 nM and 1700 nM and 1260 nM.
